In ChEMBL document CHEMBL1138860, “Design, synthesis, and evaluation of a potent, cell-permeable, conformationally constrained second mitochondria derived activator of caspase (Smac) mimetic” (J Med Chem, 2006) one finds Activity and IC50 data, which are given here for four compounds.

The test system of test [1] is MDA-MB-231. Briefly: Induction of cell death in MDA-MB-231 by Trypan blue exclusion assay at 1 uM 4 days. The class given is functional, Homo sapiens.
Test [2] deals with MDA-MB-231. Kind of test: Induction of cell death in MDA-MB-231 by Trypan blue exclusion assay at 100 nM after 4 days. The class given is functional, Homo sapiens.
The subject of test [3] is MDA-MB-231. Kind of test: Inhibition of MDA-MB-231 cell growth by WST assay. The class given is functional, cell-based. Particulars: Homo sapiens.

What is called IC50 is the concentration needed to halve the response being measured. Low readings indicate greater potency, high ones weaker potency. Turning to `CC[C@H](NC)C(=O)N[C@H]1CCC[C@H]2CC[C@@H](C(=O)NC(c3ccccc3)c3ccccc3)N2C1=O`, the values for the Activity in the test with MDA-MB-231 [1] and in the test on MDA-MB-231 [2] were 80% and 40%, respectively. For the same compound, half-maximal inhibition with MDA-MB-231 [3] (IC50) was put at 0.1 µM.

With `CC[C@@H](C(=O)N[C@H]1CCC[C@H]2CC[C@@H](C(=O)NC(c3ccccc3)c3ccccc3)N2C1=O)N(C)C`, half-maximal inhibition in the test on MDA-MB-231 [3] (IC50) was put at 3 µM. This lies in the single-digit micromolar range. Still for that read-out and setting: then `C[C@H](O)C(=O)N[C@H]1CCC[C@H]2CC[C@@H](C(=O)NC(c3ccccc3)c3ccccc3)N2C1=O`, with 65 µM; and `CC[C@H](N)C(=O)N[C@H]1CCC[C@H]2CC[C@@H](C(=O)NC(c3ccccc3)c3ccccc3)N2C1=O`, with 50 µM.
